# Measured values from patent US8501946B2 (Glaxo Group Limited, priority 2009, dated 2013).
# Biological target: T1, human recombinant P2X7 receptors (Homo sapiens, UniProt Q99572)
# T1 construct: expressed in transfected cells
# T1 sequence (Q99572 1-595): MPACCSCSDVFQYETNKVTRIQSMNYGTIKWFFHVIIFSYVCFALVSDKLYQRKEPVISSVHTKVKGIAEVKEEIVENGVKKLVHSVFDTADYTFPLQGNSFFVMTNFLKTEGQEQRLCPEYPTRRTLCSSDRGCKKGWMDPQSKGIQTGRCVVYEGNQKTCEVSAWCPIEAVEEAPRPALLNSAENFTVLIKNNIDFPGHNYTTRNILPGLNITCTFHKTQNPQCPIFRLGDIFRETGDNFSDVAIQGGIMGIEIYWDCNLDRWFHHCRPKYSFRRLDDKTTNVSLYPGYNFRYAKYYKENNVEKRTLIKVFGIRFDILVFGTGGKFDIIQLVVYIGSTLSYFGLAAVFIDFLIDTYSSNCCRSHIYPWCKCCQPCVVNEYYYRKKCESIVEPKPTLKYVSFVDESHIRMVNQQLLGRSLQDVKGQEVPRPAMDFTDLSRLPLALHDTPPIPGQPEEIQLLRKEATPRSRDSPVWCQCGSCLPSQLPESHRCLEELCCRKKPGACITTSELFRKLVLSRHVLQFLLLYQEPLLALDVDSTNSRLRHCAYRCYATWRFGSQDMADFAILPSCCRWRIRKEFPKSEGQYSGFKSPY
# Experiment: Ethidium Accumulation Assay 1 (HEK293 cells, ATP-induced ethidium uptake)
# Format: cell-based
# Conditions: HEK293 cells expressing human P2X7; 1 mM ATP; sometimes mean of more than one measurement; read-out: Assay 1 (antagonist pIC50 for blocking ATP responses) (converted)
# Protocol: Eithidium Accumulation Assay 1
# Studies were performed using NaCl assay buffer of the following composition: 140 mM NaCl, 10 mM HEPES [4-(2-hydroxyethyl)-1-piperazine-1-ethanesulfonic acid], 5 mM N-methyl-D-glucamine, 5.6 mM KCl, 10 mM D-glucose, 0.5 mM CaCl2 (pH 7.4).
# Human Embryonic Kidney (HEK) 293 cells, stably expressing human recombinant P2X7 receptors, were grown in poly-D-lysine pretreated 96 well plates for 18-24 hours.
# The cells were washed twice with 350 μl of the assay buffer, before addition of 50 μl of the assay buffer containing the putative P2X7 receptor antagonist compound. (A small amount of dimethyl sulfoxide, for initially dissolving the compound, is optionally used and present in this 50 μl test compound sample.) The cells were then incubated at room temperature (19-21° C.) for 30 min before addition of ATP and ethidium (100 μM final assay concentration). The ATP concentration was chosen to be close to the EC80 for the receptor type and was 1 mM for studies on the human P2X7 receptor. Incubations were continued for 8 or 16 min and were terminated by addition of 25 μl of 1.3M sucrose containing 4 mM of the P2X7 receptor antagonist Reactive Black 5 (Aldrich). […] Antagonist pIC50 values for blocking ATP responses were determined using iterative curve fitting techniques.
row,SMILES,IC50 [nM]
1,"O=C(c1cccc(C(F)(F)F)c1Cl)N1CCn2c(nnc2C2CCCCC2)C1 [Example 135, 7-{[2-chloro-3-(trifluoromethyl)phenyl]carbonyl}-3-cyclohexyl-5,6,7,8-tetrahydro[1,2,4]triazolo[4,3-a]pyrazine]",< 100
2,"O=C(c1ccccc1Cl)N1CCn2c(nnc2-c2ncccc2F)C1 [Example 121, 7-[(2-chlorophenyl)carbonyl]-3-(3-fluoro-2-pyridinyl)-5,6,7,8-tetrahydro[1,2,4]triazolo[4,3-a]pyrazine]",< 100
3,"O=C(c1cccc(C(F)(F)F)c1Cl)N1CCn2c(nnc2-c2cscn2)C1 [Example 42, 7-{[2-chloro-3-(trifluoromethyl)phenyl]carbonyl}-3-(1,3-thiazol-4-yl)-5,6,7,8-tetrahydro[1,2,4]triazolo[4,3-a]pyrazine]",< 10
4,"O=C(c1ccc(Cl)cc1Cl)N1CCn2c(nnc2-c2ccc(F)cc2F)C1 [Example 101, 7-[(2,4-dichlorophenyl)carbonyl]-3-(2,4-difluorophenyl)-5,6,7,8-tetrahydro[1,2,4]triazolo [4,3-a]pyrazine]",< 100
5,"O=C(c1ccc(F)cc1Cl)N1CCn2c(nnc2-c2cccc(F)n2)C1 [Example 41, 7-[(2-chloro-4-fluorophenyl)carbonyl]-3-(6-fluoro-2-pyridinyl)-5,6,7,8-tetrahydro[1,2,4]triazolo [4,3-a]pyrazine]",< 501
6,"O=C(c1cccc(C(F)(F)F)c1Cl)N1CCn2c(nnc2-c2ncc(F)cc2F)C1 [Example 83, 7-{[2-chloro-3-(trifluoromethyl)phenyl]carbonyl}-3-(3,5-difluoro-2-pyridinyl)-5,6,7,8-tetrahydro[1,2,4]triazolo [4,3-a]pyrazine]",< 10
7,"O=C(c1ccc(Cl)cc1Cl)N1CCn2c(nnc2-c2ccc(F)cn2)C1 [Example 95, 7-[(2,4-dichlorophenyl)carbonyl]-3-(5-fluoro-2-pyridinyl)-5,6,7,8-tetrahydro[1,2,4]triazolo [4,3-a]pyrazine]",< 100
8,"O=C(c1cccc(Cl)c1Cl)N1CCn2c(nnc2-c2cccc(F)n2)C1 [Example 55, 7-[(2,3-dichlorophenyl)carbonyl]-3-(6-fluoro-2-pyridinyl)-5,6,7,8-tetrahydro[1,2,4]triazolo [4,3-a]pyrazine]",< 100
9,"O=C(c1ccccc1Cl)N1CCn2c(nnc2-c2ccc(F)cn2)C1 [Example 118, 7-[(2-chlorophenyl)carbonyl]-3-(5-fluoro-2-pyridinyl)-5,6,7,8-tetrahydro[1,2,4]triazolo[4,3-a]pyrazine]",< 100
10,"O=C(c1cccc(Cl)c1Cl)N1CCn2c(Br)nnc2C1 [Example 6, 3-bromo-7-[(2,3-dichlorophenyl)carbonyl]-5,6,7,8-tetrahydro[1,2,4]triazolo [4,3-a]pyrazine]",< 100
11,"O=C(c1cccc(Cl)c1Cl)N1CCn2c(nnc2-c2ccc(F)cn2)C1 [Example 54, 7-[(2,3-dichlorophenyl)carbonyl]-3-(5-fluoro-2-pyridinyl)-5,6,7,8-tetrahydro[1,2,4]triazolo [4,3-a]pyrazine]",< 10
12,"O=C(c1cccc(C(F)(F)F)c1Cl)N1CCn2c(nnc2N2CCCC2)C1 [Example 19, 7-{[2-chloro-3-(trifluoromethyl)phenyl]carbonyl}-3-(1-pyrrolidinyl)-5,6,7,8-tetrahydro[1,2,4]triazolo [4,3-a]pyrazine]",< 100
13,"Cc1cccnc1-c1nnc2n1CCN(C(=O)c1ccc(F)cc1Cl)C2 [Example 32, 7-[(2-chloro-4-fluorophenyl)carbonyl]-3-(3-methyl-2-pyridinyl)-5,6,7,8-tetrahydro[1,2,4]triazolo[4,3-a]pyrazine]",< 100
14,"O=C(c1ccc(F)cc1Cl)N1CCn2c(nnc2-c2ccc(F)cn2)C1 [Example 40, 7-[(2-chloro-4-fluorophenyl)carbonyl]-3-(5-fluoro-2-pyridinyl)-5,6,7,8-tetrahydro[1,2,4]triazolo [4,3-a]pyrazine]",< 100
15,"O=C(c1cccc(Cl)c1Cl)N1CCn2c(nnc2-c2ccccc2)C1 [Example 70, 7-[(2,3-dichlorophenyl)carbonyl]-3-phenyl-5,6,7,8-tetrahydro[1,2,4]triazolo [4,3-a]pyrazine]",< 10
16,"O=C(c1cccc(C(F)(F)F)c1Cl)N1CCn2c(nnc2N2CCC2)C1 [Example 22, 3-(1-azetidinyl)-7-{[2-chloro-3-(trifluoromethyl)phenyl]carbonyl}-5,6,7,8-tetrahydro[1,2,4]triazolo [4,3-a]pyrazine]",< 100
17,"O=C(c1cccc(Cl)c1Cl)N1CCn2c(nnc2-c2cccnn2)C1 [Example 57, 7-[(2,3-dichlorophenyl)carbonyl]-3-(3-pyridazinyl)-5,6,7,8-tetrahydro[1,2,4]triazolo [4,3-a]pyrazine]",< 100
18,"Cc1ccc(-c2nnc3n2CCN(C(=O)c2cccc(C(F)(F)F)c2Cl)C3)nc1 [Example 51, 7-{[2-chloro-3-(trifluoromethyl)phenyl]carbonyl}-3-(5-methyl-2-pyridinyl)-5,6,7,8-tetrahydro[1,2,4]triazolo [4,3-a]pyrazine]",< 100
19,"O=C(c1cccc(Cl)c1)N1CCn2c(nnc2-c2ccccn2)C1 [Example 80, 7-[(3-chlorophenyl)carbonyl]-3-(2-pyridinyl)-5,6,7,8-tetrahydro[1,2,4]triazolo [4,3-a]pyrazine]",< 100
20,"O=C(c1cccc(C(F)(F)F)c1Cl)N1CCn2c(nnc2-c2cccc(F)n2)C1 [Example 53, 7-{[2-chloro-3-(trifluoromethyl)phenyl]carbonyl}-3-(6-fluoro-2-pyridinyl)-5,6,7,8-tetrahydro[1,2,4]triazolo [4,3-a]pyrazine]",< 10
21,"Cc1cccc(-c2nnc3n2CCN(C(=O)c2cccc(C(F)(F)F)c2Cl)C3)n1 [Example 26, 7-{[2-chloro-3-(trifluoromethyl)phenyl]carbonyl}-3-(6-methyl-2-pyridinyl)-5,6,7,8-tetrahydro[1,2,4]triazolo [4,3-a]pyrazine]",< 10
22,"Cc1ccc(-c2nnc3n2CCN(C(=O)c2cccc(Cl)c2Cl)C3)nc1 [Example 60, 7-[(2,3-dichlorophenyl)carbonyl]-3-(5-methyl-2-pyridinyl)-5,6,7,8-tetrahydro[1,2,4]triazolo [4,3-a]pyrazine]",< 100
23,"Cn1cccc1-c1nnc2n1CCN(C(=O)c1cccc(Cl)c1Cl)C2 [Example 48, 7-[(2,3-dichlorophenyl)carbonyl]-3-(1-methyl-1H-pyrrol-2-yl)-5,6,7,8-tetrahydro[1,2,4]triazolo [4,3-a]pyrazine]",< 100
24,"O=C(c1cccc(C(F)(F)F)c1Cl)N1CCn2c(nnc2-c2ncccn2)C1 [Example 50, 7-{[2-chloro-3-(trifluoromethyl)phenyl]carbonyl}-3-(2-pyrimidinyl)-5,6,7,8-tetrahydro[1,2,4]triazolo [4,3-a]pyrazine]",< 10
25,"O=C(c1ccc(Cl)cc1Cl)N1CCn2c(nnc2-c2cscn2)C1 [Example 97, 7-[(2,4-dichlorophenyl)carbonyl]-3-(1,3-thiazol-4-yl)-5,6,7,8-tetrahydro[1,2,4]triazolo [4,3-a]pyrazine]",< 10
26,"O=C(c1cccc(F)c1F)N1CCn2c(nnc2-c2ccccn2)C1 [Example 88, 7-[(2,3-difluorophenyl)carbonyl]-3-(2-pyridinyl)-5,6,7,8-tetrahydro[1,2,4]triazolo [4,3-a]pyrazine]",< 100
27,"O=C(c1ccc(F)c(Cl)c1Cl)N1CCn2c(nnc2-c2cnccn2)C1 [Example 113, 7-[(2,3-Dichloro-4-fluorophenyl)carbonyl]-3-(2-pyrazinyl)-5,6,7,8-tetrahydro[1,2,4]triazolo[4,3-a]pyrazine]",< 10
28,"O=C(c1ccc(F)cc1Cl)N1CCn2c(nnc2-c2cccnn2)C1 [Example 59, 7-[(2-chloro-4-fluorophenyl)carbonyl]-3-(3-pyridazinyl)-5,6,7,8-tetrahydro[1,2,]triazolo [4,3-a]pyrazine]",< 501
29,"O=C(c1ccc(F)cc1Cl)N1CCn2c(nnc2-c2cnc(Cl)cn2)C1 [Example 141, 7-[(2-Chloro-4-fluorophenyl)carbonyl]-3-(5-chloro-2-pyrazinyl)-5,6,7,8-tetrahydro[1,2,4]triazolo[4,3-a]pyrazine]",< 501
30,"O=C(c1cccc(Cl)c1Cl)N1CCn2c(nnc2-c2ccc(F)cc2)C1 [Example 99, 7-[(2,3-dichlorophenyl)carbonyl]-3-(4-fluorophenyl)-5,6,7,8-tetrahydro[1,2,4]triazolo [4,3-a]pyrazine]",< 10
